Measurements as given in the supplement of paper PMC4862054.

Legend:
Details in all cases: incubation time: 72 h
HCC1937 [1] = assay: normalised response (% of control), CellTox Green; higher = less cell death (100 = DMSO, 0 = benzethonium chloride kill control)
In short: (§1)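 Normalised signals at single concentrations make up the values. They come from breast cancer cell lines seeded (20 µl suspension) into 384-well plates with compound at 5 concentrations in 10-fold steps over a compound-specific 10,000-fold range, incubated 72 h, and read for CellTox Green fluorescence then CellTiter-Glo luminescence. Each plate was normalised to 0.1 % DMSO (100) and a positive kill control (0).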

CAL-148 [2] = assay: as above
In short: as §1

MCF-10A [3] = assay: as above
In short: as §1

HCC1599 [4] = assay: as above
In short: as §1

BT-549 [5] = assay: as above
In short: as §1

MDA-MB-453 [6] = assay: as above
In short: as §1

HCC1143 [7] = assay: as above
In short: as §1

MDA-MB-436 [8] = assay: as above
In short: as §1

CAL-85-1 [9] = assay: as above
In short: as §1

HDQ-P1 [10] = assay: as above
In short: as §1

CAL-51 [11] = assay: as above
In short: as §1

Hs578T [12] = assay: as above
In short: as §1

BT-474 [13] = assay: as above
In short: as §1

CAL-120 [14] = assay: as above
In short: as §1

MFM-223 [15] = assay: as above
In short: as §1

MDA-MB-231 [16] = assay: as above
In short: as §1

HCC1937 [17] = assay: normalised response (% of control), CellTiter-Glo; higher = more viable cells (100 = DMSO, 0 = benzethonium chloride kill control)
In short: as §1

CAL-148 [18] = assay: as above
In short: as §1

MCF-10A [19] = assay: as above
In short: as §1

HCC1599 [20] = assay: as above
In short: as §1

BT-549 [21] = assay: as above
In short: as §1

MDA-MB-453 [22] = assay: as above
In short: as §1

HCC1143 [23] = assay: as above
In short: as §1

MDA-MB-436 [24] = assay: as above
In short: as §1

CAL-85-1 [25] = assay: as above
In short: as §1

HDQ-P1 [26] = assay: as above
In short: as §1

CAL-51 [27] = assay: as above
In short: as §1

Hs578T [28] = assay: as above
In short: as §1

BT-474 [29] = assay: as above
In short: as §1

CAL-120 [30] = assay: as above
In short: as §1

MFM-223 [31] = assay: as above
In short: as §1

MDA-MB-231 [32] = assay: as above
In short: as §1

SK-BR-3 = assay: as above
In short: as §1

DU-4475 [33] = assay: normalised response (% of control), CellTox Green; higher = less cell death (100 = DMSO, 0 = benzethonium chloride kill control)
In short: as §1

DU-4475 [34] = assay: normalised response (% of control), CellTiter-Glo; higher = more viable cells (100 = DMSO, 0 = benzethonium chloride kill control)
In short: as §1

MDA-MB-468 [35] = assay: as above
In short: as §1

MDA-MB-468 [36] = assay: normalised response (% of control), CellTox Green; higher = less cell death (100 = DMSO, 0 = benzethonium chloride kill control)
In short: as §1

Row | SMILES | normalised response (HCC1937 [1]) [%] | normalised response (CAL-148 [2]) [%] | normalised response (MCF-10A [3]) [%] | normalised response (HCC1599 [4]) [%] | normalised response (BT-549 [5]) [%] | normalised response (MDA-MB-453 [6]) [%] | normalised response (HCC1143 [7]) [%] | normalised response (MDA-MB-436 [8]) [%] | normalised response (CAL-85-1 [9]) [%] | normalised response (HDQ-P1 [10]) [%] | normalised response (CAL-51 [11]) [%] | normalised response (Hs578T [12]) [%] | normalised response (BT-474 [13]) [%] | normalised response (CAL-120 [14]) [%] | normalised response (MFM-223 [15]) [%] | normalised response (MDA-MB-231 [16]) [%] | normalised response (HCC1937 [17]) [%] | normalised response (CAL-148 [18]) [%] | normalised response (MCF-10A [19]) [%] | normalised response (HCC1599 [20]) [%] | normalised response (BT-549 [21]) [%] | normalised response (MDA-MB-453 [22]) [%] | normalised response (HCC1143 [23]) [%] | normalised response (MDA-MB-436 [24]) [%] | normalised response (CAL-85-1 [25]) [%] | normalised response (HDQ-P1 [26]) [%] | normalised response (CAL-51 [27]) [%] | normalised response (Hs578T [28]) [%] | normalised response (BT-474 [29]) [%] | normalised response (CAL-120 [30]) [%] | normalised response (MFM-223 [31]) [%] | normalised response (MDA-MB-231 [32]) [%] | normalised response (SK-BR-3) [%] | normalised response (DU-4475 [33]) [%] | normalised response (DU-4475 [34]) [%] | normalised response (MDA-MB-468 [35]) [%] | normalised response (MDA-MB-468 [36]) [%]
1 | CCC(C)(C)C(=O)O[C@H]1C[C@@H](C)C=C2C=C[C@H](C)[C@H](CC[C@@H]3C[C@@H](O)CC(=O)O3)[C@H]21 [Simvastatin] (1000 nM) | 78.2 | 102 | 93.2 | 95.7 | 94.5 | 106 | 115 | 106 | 97.2 | 81.5 | 111 | 77.5 | 94.2 | 102 | 100 | 86.9 | 98.4 | 104 | 111 | 102 | 93.6 | 102 | 96.3 | 98.9 | 96.6 | 92.6 | 109 | 92.9 | 75 | 96.7 | 98.9 | 81.6 | 106 | – | – | – | –
2 | CC(=O)Nc1ccc(C(=O)Nc2ccccc2N)cc1 [Tacedinaline] (100 nM) | 115 | 105 | – | 97.4 | 117 | 105 | 110 | 110 | 107 | 76.9 | 103 | 92.4 | 99.1 | 101 | 101 | 108 | 102 | 97.2 | 93.7 | 126 | 106 | 102 | 97.1 | 102 | 101 | 100 | 114 | 98.4 | 105 | 99.2 | 106 | 102 | 95.4 | 99.2 | 93.6 | 109 | –
3 | CCCCCCCCCCCCCCCCCCOP(=O)([O-])OC1CC[N+](C)(C)CC1 [Perifosine] (250 nM) | 107 | 93.9 | 102 | 97.8 | 88.6 | 104 | 118 | 94.7 | 107 | 115 | 110 | 97.2 | 100 | 106 | 59.2 | 79.8 | 101 | 97.7 | 110 | 101 | 97 | 98.2 | 104 | 99.3 | 95.4 | 105 | 116 | 104 | 102 | 104 | 93.7 | 102 | 97.7 | 101 | 96.5 | 99.7 | –
4 | C[C@]12CC[C@@H]3c4ccc(O)cc4C[C@@H](CCCCCCCCC[S+]([O-])CCCC(F)(F)C(F)(F)F)[C@H]3[C@@H]1CC[C@@H]2O (stereo partly drawn) [Fulvestrant] (100 nM) | 106 | 100 | 105 | 101 | 106 | 87.5 | 111 | 108 | 108 | – | 113 | 103 | 102 | 100 | 90.7 | 114 | 105 | 97.4 | 109 | 110 | 108 | 109 | 99.3 | 108 | 99.1 | 104 | 114 | 106 | 104 | 100 | 103 | 104 | 107 | 101 | 104 | 104 | –
5 | O=C(O)c1ccc(-c2c[nH]c3ncc(-c4ccccc4)cc23)cc1C1CCCC1 (1000 nM) | 100 | – | 103 | 90.9 | 92.9 | 96.7 | 96.2 | 85.1 | 108 | 109 | 93.6 | 92.2 | 95.8 | 98.4 | 93.1 | 86.1 | 97 | 95.6 | 100 | 102 | 100 | 96.8 | 101 | 103 | 99.2 | 105 | 105 | 94.1 | 89.9 | 102 | 95.6 | 92.4 | 90.2 | 96.3 | 91.4 | 93.6 | –
6 | C[C@@H](Oc1cc(-c2cnn(C3CCNCC3)c2)cnc1N)c1c(Cl)ccc(F)c1Cl [Crizotinib] (100 nM) | 79.2 | 106 | 105 | 104 | 140 | 90.9 | 114 | 80.2 | 93.4 | 95.8 | 111 | – | 104 | 104 | 99.2 | 123 | 98.5 | 95.6 | 107 | 114 | 90.4 | 91.7 | 100 | 102 | 116 | 98.8 | 104 | 99.7 | 102 | 100 | 97.1 | 98.6 | 92.4 | 105 | 99.2 | 96.1 | 122
7 | C[C@@H](Oc1cc(-c2cnn(C3CCNCC3)c2)cnc1N)c1c(Cl)ccc(F)c1Cl [Crizotinib] (0.1 nM) | – | – | – | – | – | – | – | – | – | – | – | – | – | – | – | – | 100 | 102 | 95.6 | 82 | 104 | 111 | 99.3 | 96.7 | 92.6 | 96.7 | 82.4 | 96.2 | 101 | 102 | 103 | 102 | 81.6 | – | 106 | 91.7 | –
8 | Cc1ccc(C(=O)N(CCCN)[C@@H](c2oc3cc(Cl)ccc3c(=O)c2Cc2ccccc2)C(C)C)cc1 (10 nM) | – | 90.8 | 112 | 91.8 | 88 | 102 | 112 | 100 | 108 | 85.7 | 108 | 103 | 89.8 | 95.5 | 101 | 94.4 | 101 | 91.3 | 103 | 100 | 100 | 94.8 | 97.1 | 107 | 101 | 103 | 120 | 97.5 | 97.9 | 102 | 90.2 | 98.8 | 92.5 | 104 | 96.5 | 90.7 | 111
9 | CC1(C)NC(=O)N(c2ccc([N+](=O)[O-])c(C(F)(F)F)c2)C1=O [Nilutamide] (10 nM) | – | – | – | – | – | – | – | – | – | – | – | – | – | – | – | – | 101 | 112 | 110 | 113 | 105 | 103 | 101 | 110 | 96 | 95.6 | 127 | 99.1 | 105 | 97.9 | 112 | 102 | 117 | – | 109 | 93.3 | –
10 | CCCCCCCCCCCCCCCCCCOP(=O)([O-])OC1CC[N+](C)(C)CC1 [Perifosine] (0.25 nM) | – | – | – | – | – | – | – | – | – | – | – | – | – | – | – | – | 98.8 | 99.2 | 101 | 113 | 107 | 105 | 103 | 116 | 96.5 | 106 | 102 | 108 | 99.4 | 108 | 92.3 | 99.6 | 92.3 | – | 92.7 | 99 | –
